How the values were obtained:
[1] = target: T1, FGFR1 (Homo sapiens, UniProt P11362); assay: Z'-LYTE Detection Kinase Assay, FGFR1 enzyme reaction; format: biochemical
T1 construct: purchased Life technology
Source text: (§1) It is to evaluate the inhibitory effect of the compound on three kinases VEGFR2, FGFR1, PDGFRB by detecting the enzyme activity in accordance with Z′-LYTE™ Detection Kinase Assay and using the ICso value of the compound as the index.
(§2) Recombinant human VEGFR2 and FGFR1 proteins are purchased from Life technology, and PDGFRB proteinase is purchased from Millipore.
(§3) Z-LYTE™ Kit Tyr1 and Tyr4 are purchased from Life technology.
(§4) Read with Multimode Microplate Reader Envision (PerkinElmer).
(§5) The compound to be test was subject to a 3-fold concentration gradient dilution to 11 final concentrations ranging from 10 μM to 0.17 nM 11 with two duplicate wells per concentration. The concentration of DMSO was 1% in the test reaction.
1 nM FGFR1 protein kinase, 2 μM Tyr4 peptide, 25 μM ATP, 50 mM HEPES (pH 7.5), 10 mM MgCl2, 1 mM EGTA, 0.01% BRIJ-35, 2 mM MnCl2, 1 mM DTT. The test plate is Black Proxiplate 384-Plus plate (PerkinElmer). The reaction runs at room temperature for 60 minutes, and the reaction system is 10 μL.
(§6) 5 μL of DV reagent B (1:128) was added to the kinase reaction mixture to stopped the reaction. The reaction mixture was incubated at 23° C. for 60 minutes, and read by Envision.
(§7) The data were converted to the phosphorylation rate and the inhibition rate. The parameter curve was fitted (Model 205 in XLFIT5, iDBS) to obtain the ICso data of the compound.

[2] = target: T2, PDGFRB (Homo sapiens, UniProt P09619); assay: Z'-LYTE Detection Kinase Assay, PDGFRB enzyme reaction; format: biochemical
T2 construct: purchased Millipore
Source text: as §1, §2, §3, §4, §5
40 nM PDGFRB protein kinase, 2 μM Tyr4 peptide, 100 μM ATP, 50 mM HEPES (pH 7.5), 10 mM MgCl2, 1 mM EGTA, 0.01% BRIJ-35, 2 mM MnCl2, 1 mM DTT. The test plate is Black Proxiplate 384-Plus plate (PerkinElmer). The reaction runs at room temperature for 60 minutes, and the reaction system is […].
as §6, §7

[3] = target: T3, VEGFR2 (Homo sapiens, UniProt P35968); assay: Z'-LYTE Detection Kinase Assay, VEGFR2 enzyme reaction; format: biochemical
T3 construct: purchased Life technology
Source text: as §1, §2, §3, §4, §5
3 nM VEGFR2 protein kinase, 2 μM Tyr1 peptide, 100 μM ATP, 50 mM HEPES (pH 7.5), 10 mM MgCl2, 1 mM EGTA, 0.01% BRIJ-35. The test plate is Black Proxiplate 384-Plus plate (PerkinElmer). The reaction runs at room temperature for 60 minutes, and the reaction system is 10 μL.
as §6, §7

[4] = tested on: HUVEC; assay: CellTiter-Glo Luminescent Cell Viability Assay on HUVEC stimulated with hVEGF-165; format: cell-based; conditions: Homo sapiens, hVEGF-165 20 ng/ml, 72 hr
Description: It is to detect the intracellular ATP change by CellTiter-Glo® Luminescent Cell Viability Assay, and evaluate the inhibitory effect of the compound on in vitro cell HUVEC with ICso value of the compound as the index.
HUVEC cell lines (ATCC), EGM-2 BulletKit (Lonza), hVEGF-165 (Cell Signaling), pancreatin (Invitrogen), DPBS (Hyclone), 384-well cell plate (Greiner), 384-well compound plate (Greiner), CO2 incubator (Thermo), centrifuger (Eppendorf), Vi-cell Cell Count (Beckman Coulter), Bravo Automated Liquid Handing Platform (Agilent), Envision (Perkin Elmer)
Test Method • A. Cells recovery and growth. • B. Cell planking: HUVEC cells were re-suspended with a fasted media (containing only 2% FBS and 0.1% GA-1000), and diluted to a concentration of 20,000/mL. The diluted cells were added into 384-well plate (Greiner) with 50 μL/well. The cell plate was placed in an incubator containing 5% CO2 at 37° C. overnight. • C. Compound Addition: The compound to be tested was subject to a 4-fold gradient dilution to 10 samples having a final concentration ranging from 10 μM to 0.038 nM with two duplicate wells per concentration. […] The mixture was incubated at room temperature for 10-30 minutes, and read with Envision. […]

[5] = 100 μM ATP, 60 minutes, room temperature

T3 sequence (P35968 20-1356): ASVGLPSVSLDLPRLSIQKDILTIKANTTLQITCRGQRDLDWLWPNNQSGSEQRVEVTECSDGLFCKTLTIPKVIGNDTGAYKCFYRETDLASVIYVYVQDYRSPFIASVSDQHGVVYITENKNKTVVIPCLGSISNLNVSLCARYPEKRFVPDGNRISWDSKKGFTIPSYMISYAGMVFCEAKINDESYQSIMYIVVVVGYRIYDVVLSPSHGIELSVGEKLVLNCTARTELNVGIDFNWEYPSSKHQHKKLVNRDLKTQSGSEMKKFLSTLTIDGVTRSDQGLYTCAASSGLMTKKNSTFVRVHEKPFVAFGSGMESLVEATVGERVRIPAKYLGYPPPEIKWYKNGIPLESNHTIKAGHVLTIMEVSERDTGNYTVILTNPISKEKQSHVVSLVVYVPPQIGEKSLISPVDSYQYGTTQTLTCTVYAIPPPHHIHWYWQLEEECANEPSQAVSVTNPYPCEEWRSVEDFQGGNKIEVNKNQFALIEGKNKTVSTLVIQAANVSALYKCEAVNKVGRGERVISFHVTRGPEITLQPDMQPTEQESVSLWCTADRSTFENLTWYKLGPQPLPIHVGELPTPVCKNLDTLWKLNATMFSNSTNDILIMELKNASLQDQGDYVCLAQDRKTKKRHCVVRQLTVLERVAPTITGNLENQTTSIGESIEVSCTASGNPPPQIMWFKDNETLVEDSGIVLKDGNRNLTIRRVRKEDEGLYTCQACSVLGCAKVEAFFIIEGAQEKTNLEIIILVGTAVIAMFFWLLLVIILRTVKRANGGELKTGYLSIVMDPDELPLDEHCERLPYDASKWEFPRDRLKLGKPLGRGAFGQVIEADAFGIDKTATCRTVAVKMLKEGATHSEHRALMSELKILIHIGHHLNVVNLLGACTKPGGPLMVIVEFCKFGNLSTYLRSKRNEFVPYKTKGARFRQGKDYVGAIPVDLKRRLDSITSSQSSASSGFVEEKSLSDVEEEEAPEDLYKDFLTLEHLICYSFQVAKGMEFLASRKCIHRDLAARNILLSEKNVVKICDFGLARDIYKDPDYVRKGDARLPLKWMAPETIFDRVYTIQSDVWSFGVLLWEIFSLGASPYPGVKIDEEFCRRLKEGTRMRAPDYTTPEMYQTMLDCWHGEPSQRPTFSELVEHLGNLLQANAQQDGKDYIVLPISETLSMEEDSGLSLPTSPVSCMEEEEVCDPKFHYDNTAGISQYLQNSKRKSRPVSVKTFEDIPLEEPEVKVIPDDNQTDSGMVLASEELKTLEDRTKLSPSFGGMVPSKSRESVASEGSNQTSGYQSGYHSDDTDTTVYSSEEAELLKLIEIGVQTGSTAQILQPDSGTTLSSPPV
T1 sequence (P11362 22-822): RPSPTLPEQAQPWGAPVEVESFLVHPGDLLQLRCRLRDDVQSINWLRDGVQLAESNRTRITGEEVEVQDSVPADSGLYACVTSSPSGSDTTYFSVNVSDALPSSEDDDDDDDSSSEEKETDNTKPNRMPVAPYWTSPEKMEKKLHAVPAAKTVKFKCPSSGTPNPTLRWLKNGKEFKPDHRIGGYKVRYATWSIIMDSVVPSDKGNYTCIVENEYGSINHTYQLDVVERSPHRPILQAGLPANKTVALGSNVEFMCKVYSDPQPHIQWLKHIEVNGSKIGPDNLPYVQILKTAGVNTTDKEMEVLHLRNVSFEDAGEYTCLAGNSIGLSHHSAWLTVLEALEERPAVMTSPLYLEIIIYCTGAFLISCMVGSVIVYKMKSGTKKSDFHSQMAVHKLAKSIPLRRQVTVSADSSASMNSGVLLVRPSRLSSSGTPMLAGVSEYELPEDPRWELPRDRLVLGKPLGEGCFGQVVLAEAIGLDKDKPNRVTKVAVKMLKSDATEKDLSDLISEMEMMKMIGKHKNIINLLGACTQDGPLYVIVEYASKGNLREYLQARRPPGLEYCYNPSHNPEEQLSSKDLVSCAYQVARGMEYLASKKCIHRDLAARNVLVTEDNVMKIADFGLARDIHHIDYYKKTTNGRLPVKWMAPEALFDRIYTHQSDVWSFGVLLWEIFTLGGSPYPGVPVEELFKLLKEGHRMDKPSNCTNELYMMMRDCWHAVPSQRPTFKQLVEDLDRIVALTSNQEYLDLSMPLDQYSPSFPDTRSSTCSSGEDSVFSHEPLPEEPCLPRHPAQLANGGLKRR
T2 sequence (P09619 33-1106): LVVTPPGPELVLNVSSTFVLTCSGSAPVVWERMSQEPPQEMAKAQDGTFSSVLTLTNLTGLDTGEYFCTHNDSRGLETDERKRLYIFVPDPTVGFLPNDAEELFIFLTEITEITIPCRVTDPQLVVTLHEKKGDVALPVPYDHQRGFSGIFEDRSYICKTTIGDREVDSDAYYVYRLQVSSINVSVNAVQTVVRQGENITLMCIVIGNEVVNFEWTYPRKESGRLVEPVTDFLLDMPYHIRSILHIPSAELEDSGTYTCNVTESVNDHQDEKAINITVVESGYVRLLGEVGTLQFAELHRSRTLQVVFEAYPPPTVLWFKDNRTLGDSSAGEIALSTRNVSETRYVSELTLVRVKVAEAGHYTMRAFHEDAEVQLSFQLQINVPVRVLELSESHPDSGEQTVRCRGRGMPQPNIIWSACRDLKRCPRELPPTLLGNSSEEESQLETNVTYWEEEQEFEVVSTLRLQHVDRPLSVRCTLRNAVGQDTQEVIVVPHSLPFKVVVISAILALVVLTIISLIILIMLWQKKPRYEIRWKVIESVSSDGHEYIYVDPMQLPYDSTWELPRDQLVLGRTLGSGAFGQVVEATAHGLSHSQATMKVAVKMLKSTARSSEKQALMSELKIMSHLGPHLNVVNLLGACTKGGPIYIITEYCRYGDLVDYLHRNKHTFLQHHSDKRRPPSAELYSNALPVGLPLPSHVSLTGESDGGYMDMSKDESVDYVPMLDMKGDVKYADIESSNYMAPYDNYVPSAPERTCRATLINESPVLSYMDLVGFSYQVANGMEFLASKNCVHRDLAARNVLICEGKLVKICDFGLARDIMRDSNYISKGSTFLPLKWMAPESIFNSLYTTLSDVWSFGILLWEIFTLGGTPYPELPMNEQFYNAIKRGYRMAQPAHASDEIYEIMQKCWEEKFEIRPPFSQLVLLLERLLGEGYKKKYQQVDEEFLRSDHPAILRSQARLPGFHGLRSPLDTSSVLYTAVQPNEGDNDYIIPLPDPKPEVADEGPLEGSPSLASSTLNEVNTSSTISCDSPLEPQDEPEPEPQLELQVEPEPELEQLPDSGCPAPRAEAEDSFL

SMILES: COc1cc2nccc(Oc3ccc(NC(=S)NC4CC4)c(Cl)c3F)c2cc1C(N)=O [Compound 1]
- Inhibitory activity on FGFR1 in vitro, conclusion in words [1]: superior inhibitory activity
- IC50 ([1]; 25 μM ATP, 60 minutes, room temperature): 50 to 200 nM
- Inhibitory activity on PDGFRB in vitro, conclusion in words [2]: superior inhibitory activity
- IC50 [2, 5]: < 50 nM
- Inhibitory activity on VEGFR2 in vitro, conclusion in words [3]: superior inhibitory activity
- IC50 [3, 5]: < 50 nM
- IC50 [4]: < 100 nM

— patent US10766862B2, “Crystal form and salt form of and preparation method for tyrosine kinase inhibitor” (GUANGDONG RAYNOVENT BIOTECH CO., LTD., priority 2016, dated 2020)
